We go through one molecule from ChEMBL document CHEMBL4665871, “Small-molecule active pharmaceutical ingredients of approved cancer therapeutics inhibit human aspartate/asparagine-β-hydroxylase” (Bioorg Med Chem, 2020).

For assay [1], the target named is T1, Aspartyl/asparaginyl beta-hydroxylase (Homo sapiens, UniProt Q12797).
T1 sequence (Q12797 whole entry): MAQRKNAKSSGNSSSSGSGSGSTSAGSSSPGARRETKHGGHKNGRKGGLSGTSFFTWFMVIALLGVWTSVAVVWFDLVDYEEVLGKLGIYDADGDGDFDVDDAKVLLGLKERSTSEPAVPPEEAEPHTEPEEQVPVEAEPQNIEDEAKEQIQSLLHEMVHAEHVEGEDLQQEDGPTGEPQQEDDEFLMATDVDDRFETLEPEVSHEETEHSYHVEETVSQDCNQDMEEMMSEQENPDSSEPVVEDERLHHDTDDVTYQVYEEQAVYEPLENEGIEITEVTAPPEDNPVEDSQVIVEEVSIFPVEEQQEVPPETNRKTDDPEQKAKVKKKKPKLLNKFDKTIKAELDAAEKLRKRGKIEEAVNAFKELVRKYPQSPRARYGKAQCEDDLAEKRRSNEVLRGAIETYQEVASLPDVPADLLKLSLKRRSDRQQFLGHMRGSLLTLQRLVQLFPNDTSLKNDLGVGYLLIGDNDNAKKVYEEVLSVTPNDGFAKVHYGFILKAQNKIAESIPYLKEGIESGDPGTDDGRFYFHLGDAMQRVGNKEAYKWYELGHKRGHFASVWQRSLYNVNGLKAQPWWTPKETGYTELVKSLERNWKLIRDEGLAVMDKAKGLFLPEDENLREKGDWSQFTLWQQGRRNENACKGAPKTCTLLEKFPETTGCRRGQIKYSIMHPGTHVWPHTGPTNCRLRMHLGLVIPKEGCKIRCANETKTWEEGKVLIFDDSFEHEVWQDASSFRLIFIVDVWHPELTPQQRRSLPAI
Description: Inhibition of N-His6-tagged human AspH (315-755) expressed in Escherichia coli BL21 (DE3) using 1 uM hFX-CP as substrate mixture with high 200 uM 2OG, 100 uM L-ascorbic acid and 2 uM FAS incubated for 35 mins by MS analysis.

Assay [2] concerns the target T1, Aspartyl/asparaginyl beta-hydroxylase. Description: Inhibition of N-His6-tagged human AspH (315-755) expressed in Escherichia coli BL21 (DE3) using 1 uM hFX-CP as substrate mixture with 3 uM 2OG, 100 uM L-ascorbic acid and high 20 uM FAS incubated for 35 mins by MS analysis.
Assay [3] has the same target. Description: Inhibition of N-His6-tagged human AspH (315-755) expressed in Escherichia coli BL21 (DE3) using high 10 uM hFX-CP as substrate mixture with 10 uM 2OG, 100 uM L-ascorbic acid and 2 uM FAS incubated for 35 mins by MS analysis.

For the molecule `CO[C@H](C(=O)[C@@H](O)[C@@H](C)O)[C@@H]1Cc2cc3cc(O[C@H]4C[C@@H](O[C@H]5C[C@@H](O)[C@H](O)[C@@H](C)O5)[C@H](O)[C@@H](C)O4)c(C)c(O)c3c(O)c2C(=O)[C@H]1O[C@H]1C[C@@H](O[C@H]2C[C@@H](O[C@H]3C[C@](C)(O)[C@H](O)[C@@H](C)O3)[C@@H](O)[C@@H](C)O2)[C@H](O)[C@@H](C)O1`, the IC50 in assay [1] was 12.2 µM; in assay [2], “Not Active”; in assay [3], 3.39 µM.

Usually IC50 stands for the concentration needed to halve the response being measured.
